Measured values published in US8263773B2, “Thieno [2,3-b] pyridine compounds with mGluR activity” (Richter Gedeon Nyrt., priority 2008, dated 2012).

Key:
human mGluR5a receptor = target: T1, human mGluR5a receptor (Homo sapiens, UniProt P41594); test: human mGluR5a receptor binding ([3H]-M-MPEP, A18 cell line expressing hmGluR5a); conditions: for Ki: A18 cell line expressing hmGluR5a, [3H]-M-MPEP 2 nM; for binding affinity to human mGlu5 receptors: statement in words
T1 construct: host or cells: A18 cell line
Experimental: (§1) MGluR5 Receptor Binding Tests
(§2) MGluR5 receptor binding was determined according to Gasparini et al. (Bioorg. Med. Chem. Lett. 2000, 12:407-409) with modifications. Rat cerebro-cortical membrane preparation was used to determine the binding characteristics of reference compounds and novel compounds to the rat mGluR5. The A18 cell line expressing hmGluR5a (purchased from Euroscreen) was used to determine binding characteristics of the chemical compounds to the human mGluR5a receptor. [3H]-M-MPEP (2 nM) was used as a radioligand. The nonspecific binding was determined in the presence of 10 μM M-MPEP.

male Wistar rats = test: Anxiolytic activity in the punished drinking test (Vogel); assay type: in vivo, rat; conditions: for Punished drinking, MED: oral, 60 min before test, MED = dose increasing accepted shocks above 35, male Wistar rats; for anxiolytic activity after oral administration: statement in words
From the text: Measurement of Anxiolytic Activity in the Punished Drinking Test
The method described by Vogel et al. (Psychopharmacology (Berl.) 1971, 21:1-7) was used with modifications. On the day preceding the test day male Wistar rats (180-220 g) were placed into the test chambers which were equipped with a metal water spout mounted on the wall of the chamber and a metal grid floor for delivering electric shocks. During a 5-min adaptation period the animals had free access to the drinking spout. Following the adaptation session rats were deprived of drinking water for 24 hours prior to the test. On the day of the measurement, the animals were orally treated with the test compounds and 60 minutes later were placed into the test chambers where they had access to the drinking water. In the test session drinking was punished by delivering electric shocks (1 mA, 1 sec) through the drinking spout following every 10 licks during a 270 second punishment period. Number of licks and shocks delivered were recorded and stored in a computer. Anxiolytic activity is reflected by the increased number of accepted shocks. Minimum effective doses (MED, defined as the dose which increased the number of accepted shocks above 35) were determined and used to characterize the anxiolytic potency of the tested compounds.

rat mGluR5 = target: T2, rat mGluR5 (Rattus norvegicus, UniProt P31424); test: rat mGluR5 receptor binding ([3H]-M-MPEP, rat cerebro-cortical membranes); conditions: for Ki: rat cerebro-cortical membranes, [3H]-M-MPEP 2 nM; for binding affinity to rat mGlu5 receptors: statement in words
T2 construct: Rat cerebro-cortical membrane preparation was used; from tissue; host or cells: rat cerebral cortex membranes
Experimental: as §1, §2

T1 sequence (P41594 21-1180 isoform P41594-2 limits assumed): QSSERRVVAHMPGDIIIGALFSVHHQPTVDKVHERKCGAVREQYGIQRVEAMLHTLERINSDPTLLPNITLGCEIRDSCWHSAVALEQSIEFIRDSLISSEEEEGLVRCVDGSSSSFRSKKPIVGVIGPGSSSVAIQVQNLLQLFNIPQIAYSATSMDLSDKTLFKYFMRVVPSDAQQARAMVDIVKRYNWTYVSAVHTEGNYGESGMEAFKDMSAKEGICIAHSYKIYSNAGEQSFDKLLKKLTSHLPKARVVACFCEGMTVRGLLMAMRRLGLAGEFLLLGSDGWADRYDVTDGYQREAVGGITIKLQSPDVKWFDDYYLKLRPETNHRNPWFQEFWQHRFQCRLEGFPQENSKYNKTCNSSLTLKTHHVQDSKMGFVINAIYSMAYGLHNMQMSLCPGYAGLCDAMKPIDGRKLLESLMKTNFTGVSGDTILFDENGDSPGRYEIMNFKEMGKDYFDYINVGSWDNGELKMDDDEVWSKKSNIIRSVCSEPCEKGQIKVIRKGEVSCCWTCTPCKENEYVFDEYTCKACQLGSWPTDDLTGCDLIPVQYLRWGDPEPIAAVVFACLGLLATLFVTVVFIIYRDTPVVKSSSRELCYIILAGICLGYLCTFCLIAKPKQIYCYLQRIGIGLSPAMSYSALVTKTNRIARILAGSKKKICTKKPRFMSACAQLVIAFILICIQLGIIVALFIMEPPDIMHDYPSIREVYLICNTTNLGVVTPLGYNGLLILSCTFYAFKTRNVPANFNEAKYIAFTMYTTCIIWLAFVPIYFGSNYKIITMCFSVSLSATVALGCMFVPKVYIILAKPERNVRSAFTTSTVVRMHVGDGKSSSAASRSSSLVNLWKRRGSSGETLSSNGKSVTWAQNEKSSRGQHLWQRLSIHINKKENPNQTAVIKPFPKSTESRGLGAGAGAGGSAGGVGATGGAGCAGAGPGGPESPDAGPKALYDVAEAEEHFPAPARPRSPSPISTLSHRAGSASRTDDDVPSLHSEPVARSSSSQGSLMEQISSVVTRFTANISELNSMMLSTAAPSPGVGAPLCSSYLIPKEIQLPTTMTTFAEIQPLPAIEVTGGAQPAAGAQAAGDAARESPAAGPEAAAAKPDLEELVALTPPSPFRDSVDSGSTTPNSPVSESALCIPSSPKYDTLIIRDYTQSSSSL
T2 sequence (P31424 21-1203): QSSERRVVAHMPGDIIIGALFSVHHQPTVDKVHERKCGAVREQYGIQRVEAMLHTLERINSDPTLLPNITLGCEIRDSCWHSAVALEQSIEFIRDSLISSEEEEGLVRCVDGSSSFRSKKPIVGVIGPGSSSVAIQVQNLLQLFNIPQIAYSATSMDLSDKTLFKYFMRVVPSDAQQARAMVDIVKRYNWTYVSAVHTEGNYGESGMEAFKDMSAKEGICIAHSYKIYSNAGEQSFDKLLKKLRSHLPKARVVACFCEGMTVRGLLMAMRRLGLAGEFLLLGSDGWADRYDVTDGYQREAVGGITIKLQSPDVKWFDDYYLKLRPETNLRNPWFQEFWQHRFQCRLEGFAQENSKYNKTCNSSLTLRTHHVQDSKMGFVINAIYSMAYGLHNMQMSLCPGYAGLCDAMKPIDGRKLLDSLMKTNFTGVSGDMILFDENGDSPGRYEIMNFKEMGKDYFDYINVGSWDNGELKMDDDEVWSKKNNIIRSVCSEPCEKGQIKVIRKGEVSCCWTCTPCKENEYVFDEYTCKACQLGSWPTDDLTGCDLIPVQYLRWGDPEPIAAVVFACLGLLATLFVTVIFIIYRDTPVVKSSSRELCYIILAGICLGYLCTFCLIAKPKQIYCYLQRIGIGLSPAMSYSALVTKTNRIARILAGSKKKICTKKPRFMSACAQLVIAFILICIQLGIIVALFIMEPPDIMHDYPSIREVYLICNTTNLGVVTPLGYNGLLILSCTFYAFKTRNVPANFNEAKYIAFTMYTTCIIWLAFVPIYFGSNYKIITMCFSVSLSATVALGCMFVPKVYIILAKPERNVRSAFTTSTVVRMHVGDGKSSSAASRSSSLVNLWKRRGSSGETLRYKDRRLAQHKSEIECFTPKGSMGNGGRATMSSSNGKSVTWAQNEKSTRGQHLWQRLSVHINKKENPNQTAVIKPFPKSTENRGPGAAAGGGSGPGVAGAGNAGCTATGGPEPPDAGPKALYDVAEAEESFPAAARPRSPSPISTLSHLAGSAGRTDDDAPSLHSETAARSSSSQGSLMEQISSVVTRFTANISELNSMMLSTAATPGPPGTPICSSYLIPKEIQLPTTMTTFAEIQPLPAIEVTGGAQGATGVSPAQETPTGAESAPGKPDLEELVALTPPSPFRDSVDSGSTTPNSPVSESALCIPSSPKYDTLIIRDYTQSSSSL

Row | SMILES | Ki (human mGluR5a receptor) [nM] | binding affinity to human mGlu5 receptors (human mGluR5a receptor) | Punished drinking, MED (male Wistar rats) [mg/kg] | anxiolytic activity after oral administration (male Wistar rats) | Ki (rat mGluR5) [nM] | binding affinity to rat mGlu5 receptors (rat mGluR5)
1 | N#Cc1cc(F)cc(S(=O)(=O)c2sc3ncc(N)cc3c2-c2cccc(F)c2)c1 [Compound 1, 5-Amino-2-(3-cyano-5-fluoro-benzenesulfonyl)-3-(3-fluorophenyl)-thieno[2,3-b]-pyridine] | 3.2 | high affinity | 3 | remarkable anxiolytic activity | 1.9 | high affinity
2 | N#Cc1cc(F)cc(S(=O)(=O)c2sc3ncc(N)cc3c2-c2cccc(Cl)c2)c1 [Compound 2, 5-Amino-2-(3-cyano-5-fluoro-benzenesulfonyl)-3-(3-chlorophenyl)-thieno[2,3-b]-pyridine] | 8.7 | high affinity | 5 | remarkable anxiolytic activity | 7.2 | high affinity
